Experimental data published in PubChem BioAssay (NCI).
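Following 48 hours of exposure in 96-well plates, responses at five concentrations were used to interpolate endpoints linearly. At the GI50, growth is halved. At the TGI there is no net growth.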

Legend:
Assay in all cases: NCI tumour cell line growth inhibition, 48 h
A498 renal = system: A498 renal
HCC-2998 colon = system: HCC-2998 colon
LOX IMVI melanoma = system: LOX IMVI melanoma
MDA-MB-231 breast = system: MDA-MB-231 breast
NCI-H23 lung = system: NCI-H23 lung
NCI-H460 lung = system: NCI-H460 lung
OVCAR-8 ovarian = system: OVCAR-8 ovarian
SK-OV-3 ovarian = system: SK-OV-3 ovarian
UACC-257 melanoma = system: UACC-257 melanoma
CCRF-CEM leukemia = system: CCRF-CEM leukemia

SMILES | GI50 (A498 renal) | TGI (A498 renal) | GI50 (HCC-2998 colon) | TGI (HCC-2998 colon) | GI50 (LOX IMVI melanoma) | TGI (LOX IMVI melanoma) | GI50 (MDA-MB-231 breast) | TGI (MDA-MB-231 breast) | GI50 (NCI-H23 lung) | TGI (NCI-H23 lung) | GI50 (NCI-H460 lung) | TGI (NCI-H460 lung) | GI50 (OVCAR-8 ovarian) | TGI (OVCAR-8 ovarian) | GI50 (SK-OV-3 ovarian) | TGI (SK-OV-3 ovarian) | GI50 (UACC-257 melanoma) | TGI (UACC-257 melanoma) | TGI (CCRF-CEM leukemia)
O=C(CC1(O)C(=O)Nc2ccc(Br)cc21)c1ccc(C(=O)NCC2CCC3(CC2)OOC2(CCCCC2)OO3)cc1 (stereo not given) | 14.7 µM | 30.2 µM | 12.7 µM | 37.6 µM | 1.95 µM | 29 µM | 5.96 µM | 37.1 µM | 6.43 µM | 32 µM | 3.37 µM | 30.2 µM | 4.57 µM | > 100 µM | 10.4 µM | 31.3 µM | 10.6 µM | 29 µM | 
COc1cnc2c(c1)C(=O)c1c-2n(CCCN2CCNCC2)c(=O)c2cc(Cl)ccc12 | 0.551 µM | 2.28 µM |  |  |  |  |  |  |  |  | 0.0449 µM | 1.29 µM |  |  | 1.16 µM | 2.51 µM | 2.19 µM | 4.82 µM | 
c1ccc2c[n+](CCCCCCCCCC[n+]3ccc4ccccc4c3)ccc2c1 |  | > 10 µM |  | > 10 µM |  | > 10 µM |  | > 10 µM |  | > 10 µM |  | > 10 µM |  | > 10 µM |  | > 10 µM |  | > 10 µM | > 10 µM
O=C1c2ccccc2C(=O)c2c(NCCNC(=O)C3CCCN3)ccc(NCCNC(=O)C3CCCN3)c21 (stereo not given) |  |  |  | > 100 µM |  | 1.58 µM |  | > 100 µM |  | > 100 µM |  |  |  | 94.3 µM |  | > 100 µM |  | > 100 µM | > 100 µM
Cc1ccc(C)c(/C(=N\N=C(N)N)C2CC2)c1 |  | > 100 µM |  | 35.4 µM |  | > 100 µM |  | > 100 µM |  | 66.7 µM |  | 47.9 µM |  | > 100 µM |  | > 100 µM |  | > 100 µM | 
CCOC(=O)c1c2c(c(O)c3ccccc3c(O)n(-c3ccc(C)cc3)c1C)C(=O)C=CC2=O |  |  |  | 36.9 µM |  | 38.8 µM |  | 55.7 µM |  | 52 µM |  | 84.6 µM |  | 41.3 µM |  | 89.7 µM |  | 29.3 µM | 78.9 µM
O=C(CSCC(=O)N/N=C/c1cccc(OCc2ccccc2)c1)N/N=C/c1cccc(OCc2ccccc2)c1 |  | > 69.7 µM |  | > 100 µM |  | > 100 µM |  | > 100 µM |  | > 100 µM |  | > 100 µM |  | > 100 µM |  | > 100 µM |  | > 85.1 µM | > 100 µM
Cc1c2ccnc(-c3ccccc3)c2cc2c1[nH]c1ccccc12 |  | 10.6 µM |  | 13.2 µM |  | 17.6 µM |  |  |  | 19.9 µM |  | 7.36 µM |  | 7 µM |  | 9.39 µM |  | 6.26 µM | 10.6 µM
CC(C)CNc1nc(N)[nH]c(=O)c1NC=O |  | > 100 µM |  | > 100 µM |  | > 100 µM |  | > 100 µM |  | > 100 µM |  | > 100 µM |  | > 100 µM |  | > 100 µM |  | > 100 µM | > 100 µM
N=C(N)c1ccc(-c2ccc(-c3ccc(Cl)cn3)s2)cc1 | 3.82 µM | 17.3 µM |  |  |  |  | 1.58 µM | 3.02 µM |  |  |  |  |  |  | 1.83 µM | 3.49 µM | 1.8 µM | 3.62 µM | 
CN(C)c1ccc2nc3c(C(=O)O)cc(=O)c(O)c-3oc2c1 |  | > 100 µM |  |  |  | > 100 µM |  | > 100 µM |  | 33.6 µM |  | 66 µM |  | > 100 µM |  | > 100 µM |  | 32.3 µM | 57.8 µM
CN(C)c1ccc(C2CC(=O)C(C#N)=C(c3ccccc3)NN2C)cc1 (stereo not given) |  | > 100 µM |  | > 100 µM |  | > 100 µM |  |  |  | > 100 µM |  | 36.9 µM |  |  |  | > 100 µM |  | > 100 µM | 
